# System: neurosphere subcultures
# Assay: Exposure of neurosphere subcultures to dibutyryl cAMP
# Assay type: cell-based
# Conditions: media containing 2.5 mM dibutyryl cAMP
smiles,measurement,value
CCCC(=O)Nc1ncnc2c1ncn2[C@@H]1O[C@@H]2COP(=O)(O)O[C@H]2[C@H]1OC(=O)CCC [dibutyryl cAMP],levels of α-internexin,increases
same,mitotic activity,drastically decreases
